{"source": "patent US5438130A", "about": "“Fucosylated guanosine disulfates as excitatory amino acid antagonists” (priority 1993, dated 1995)", "key": {"[1]": {"test_system": "delayed neuronal degeneration following transient forebrain ischemia", "conditions": "cited from earlier work"}, "[2]": {"conditions": "in vivo; cited from earlier work"}, "[3]": {"molecular_target": "kainate receptor", "conditions": "printed for comparison; source not stated; read-out: IC50 (comparison, non-NMDA antagonists); cited from earlier work"}, "[4]": {"test_system": "quisqualate currents in fish horizontal cells", "assay": "Voltage clamp of quisqualate-elicited currents in fish retinal horizontal cells", "type": "cell-based", "conditions": "quisqualate 10μM", "description": "(§1) Two sets of experiments were conducted to determine the concentration dependence of both kainate and quisqualate currents to HF7. Each experiment was conducted in a manner similar to that in which the FIG. 4 experiment was conducted. Inward currents were elicited by bath perfusion of either 25μM kainate or by 10μM quisqualate. Six doses of HF7 were utilized for each set of experiments. Each dose was tried on three different cells. Responses to HF7 were calculated as a percent of control kainate current. […] Each point in FIG. 5 is the mean of measurement from three different cells."}, "[5]": {"test_system": "glutamate-induced current", "assay": "Whole cell recording of glutamate-induced current under voltage clamp (HPLC fraction assay)", "type": "cell-based", "conditions": "HF7 peak, voltage clamp mode", "description": "The components were eluted from the column stepwise with 0%, 2% and 4% acetonitrile in 0.1% TFA for the duration of 45 min., 15 min. and 40 min., respectively, at a flow rate of 2 ml/min. The elution was monitored by absorbance at 214 nm (FIG. 2) and 254 nm. According to the elution profile, fractions were collected manually and, after being dried down and dissolved in an appropriate buffer, were assayed in whole cell recording of glutamate-induced current under the voltage clamp mode (see \"Functional Characterization\" below for details). […] The other batch of HF7 was also purified with a slightly different program of acetonitrile stepwise elution (1% for 20 min., 2% for 20 min. and 4% for 40 min.), resulting in a shorter operation time without a significant change in the elution profile."}, "[6]": {"molecular_target": "kainate receptor", "assay": "Displacement of [3H]-kainate, rat forebrain crude synaptic membranes", "conditions": "50 mM Tris-acetate; 1 hour at 4° C.; FIG. 3; read-out: IC50, displacement of [3H]-kainate binding", "description": "The ability of HF7 to block the kainate receptor was tested using a [^3 H]-kainate binding assay. More specifically, a standard receptor binding assay [London, E. D. et al. Molecular Pharmacol. 15:492 (1979)] was performed to determine the extent to which HF7 could displace the binding of radioactive kainate ([^3 H]-kainate, 1.0 mCi/ml, NEN). The membrane source was frozen rat forebrain crude synaptic membranes treated with detergent (0.01% TRITON-X100). Radioligand binding was determined using 50 mM Tris-acetate buffer. Samples were incubated for 1 hour at 4° C. and then filtered over either Whatman GF/B or Schleicher & Schuell glass filters. Non-specific binding was determined using 10^-4 M glutamate. [^3 H]-kainate binding was linear from 50-400 μg protein/tube."}, "[7]": {"test_system": "L-type calcium currents in N1E-115 murine neuroblastoma cells", "assay": "L-type calcium currents in N1E-115 neuroblastoma cells, whole cell voltage clamp", "type": "cell-based", "description": "(§2) L-type calcium currents were obtained from cultured N1E-115 murine neuroblastoma cells using standard whole cell voltage clamp techniques [Hamill, O. P. et al. Pflugers Archives 391:85 (1981)]. For recording inward currents, external calcium was substituted with barium. Cells were maintained in a external recording solution containing TEA.Cl, 130 mM; BaCl2, 5 mM; glucose, 10 mM; HEPES, 10 mM; tetrodotoxin, 1μM; pH 7.4). The pipette solution contained CsCl, 115 mM; EGTA, 10 mM; HEPES, 10 mM; Mg.ATP, 4 mM.\nThe results from one experiment can be seen in FIG. 6. A depolarizing test pulse to +10 mV elicited an inward current of ~240 pA, which was reduced by 20% by pressure-ejection (6 psi) of 22μM HF7. The effects of HF7 blockade were partially reversible (60% recovery) subsequent to washout of HF7. The voltage protocol is shown in the inset. Cells were held at Vh =-50 mV. L-type currents were evoked following a depolarizing voltage step to +10 mV.\n(§3) Two sets of experiments were conducted to determine the concentration dependence of both L- and T-type calcium currents to HF7. Each experiment was conducted in a manner similar to that in which the FIG. 6 experiment was performed. Inward L-type currents were elicited by depolarizing test pulses to +10 mV from a resting potential of -50 mV. Inward T-type currents were elicited by depolarizing test pulses to -25 mV from a resting potential of -90 mV. Six doses of HF7 were utilized for each set of experiments. Each dose was tried on three different cells. Responses to HF7 were calculated as percent inhibition of control current. Negative values represent current levels that were greater than control."}, "[8]": {"test_system": "kainate receptors", "assay": "Voltage clamp of kainate-elicited currents in fish retinal horizontal cells", "type": "cell-based", "description": "In this experiment, kainate currents were obtained from primary cultures of fish retinal horizontal cells using standard whole cell voltage clamp techniques [Hamill, O. P. et al. Pflugers Archives 391:85 (1981)]. For recordings cells were maintained in a physiological saline containing (in mM) NaCl, 145; KCl, 2.5; CaCl2, 2.5; MgSO4, 1.0; glucose, 10; HEPES, 10, pH 7.5). Cells were held near resting potential (Vh =-60 mV). Kainate current was elicited by superfusion of a solution of physiological saline solution containing 25μM kainate.\nas §1"}, "[9]": {"test_system": "T-type calcium currents in N1E-115 murine neuroblastoma cells", "assay": "T-type calcium currents in N1E-115 neuroblastoma cells, whole cell voltage clamp", "type": "cell-based", "conditions": "-90 mV to -25 mV; especially between 0 and 90μM; FIG. 7", "description": "as §2, §3"}, "[10]": {"test_system": "ionic currents elicited by glutamate in fish retinal neurons", "assay": "Voltage clamp of glutamate-elicited currents in fish retinal neurons", "type": "cell-based", "conditions": "glutamate 50μM"}, "[11]": {"conditions": "in vivo; cited from earlier work", "remark": "listed apart in the source"}, "[12]": {"test_system": "stroke", "conditions": "cited from earlier work"}}, "note": "Where two headings read alike, the source gives them in different places.", "data": [{"compound": "NS(=O)(=O)c1cccc2c1c([N+](=O)[O-])cc1nc(O)c(O)nc12", "note": "[NBQX, 2,3-dihydroxy-6-nitro-7-sulfamoyl-benzo(F)quinoxaline]", "values": [{"measurement": "protection on delayed administration", "setting": "[1]; administered several hours after the ischemic insult", "value": "protection was observed"}, {"measurement": "prevention of delayed neuronal degeneration following transient forebrain ischemia", "setting": "[1]; gerbils and rats, relatively large systemic doses", "value": "dramatically effective"}, {"measurement": "crossing of the blood-brain barrier", "setting": "[2]", "value": "only in minute amounts"}]}, {"compound": "N#Cc1cc2[nH]c(=O)c(=O)[nH]c2cc1[N+](=O)[O-]", "note": "[CNQX]", "values": [{"measurement": "IC50", "setting": "[3]", "value": "~2", "unit": "µM"}]}, {"compound": "CC(=O)OC1C(C)OC(O[C@@H]2[C@H](OS(=O)(=O)O)[C@@H](COS(=O)(=O)O)O[C@H]2n2cnc3c(=O)[nH]c(N)nc32)C(O)C1O", "note": "(stereo partly shown) [HF7]", "values": [{"measurement": "inhibition of ionic currents elicited by quisqualate", "setting": "[4]", "value": "reversibly inhibited"}, {"measurement": "IC50", "setting": "[4]; mean of three cells per dose, FIG. 5, read-out: IC50, quisqualate current", "value": "~60", "unit": "µM"}, {"measurement": "activity on glutamate-induced current", "setting": "[5]", "value": "found to be active"}, {"measurement": "IC50", "setting": "[6]", "value": "~20.7", "unit": "µM"}, {"measurement": "reduction of L-type inward current", "setting": "[7]; 22μM HF7, Vh = -50 mV, test pulse to +10 mV, FIG. 6", "value": 20, "unit": "%"}, {"measurement": "recovery of L-type current after washout", "setting": "[7]; subsequent to washout of 22μM HF7, partially reversible", "value": 60, "unit": "%"}, {"measurement": "concentration dependence of L-type current inhibition", "setting": "[7]; throughout the concentration range used, -50 mV to +10 mV, FIG. 7", "value": "inhibited in a concentration dependent manner"}, {"measurement": "effect on kainate-elicited inward current", "setting": "[8]; approximately 180μM HF7, pressure-ejection, Vh = -60 mV, kainate 25μM", "value": "virtually eliminated"}, {"measurement": "inhibition of ionic currents elicited by kainate", "setting": "[8]; kainate 25μM", "value": "reversibly inhibited"}, {"measurement": "IC50", "setting": "[8]; kainate 25μM, mean of three cells per dose, FIG. 5, read-out: IC50, kainate current", "value": "~60", "unit": "µM"}, {"measurement": "reversibility of HF7 blockade of kainate current", "setting": "[8]; subsequent to washout", "value": "fully reversible"}, {"measurement": "inhibition of the kainate response", "setting": "[8]; ~200μM HF7, FIG. 4, kainate 25μM", "value": "near-complete inhibition"}, {"measurement": "effect on T-type current", "setting": "[9]", "value": "much more variable"}, {"measurement": "inhibition of ionic currents elicited by glutamate", "setting": "[10]", "value": "reversibly inhibited"}]}, {"compound": "COCCOC(=O)C1=C(C)NC(C)=C(C(=O)OC(C)C)C1c1cccc([N+](=O)[O-])c1", "note": "(stereo not shown) [nimodipine]", "values": [{"measurement": "toxicity relative to NMDA antagonists", "setting": "[11]", "value": "less toxic than the NMDA antagonists"}, {"measurement": "improvement in the outcome of stroke", "setting": "[12]; clinical trials", "value": "Modest improvement"}, {"measurement": "cardiovascular side effects", "setting": "[12]; in vivo", "value": "significant cardiovascular side effects"}]}, {"compound": "O=c1[nH]c2cc([N+](=O)[O-])c([N+](=O)[O-])cc2[nH]c1=O", "note": "[DNQX]", "values": [{"measurement": "IC50", "setting": "[3]", "value": "~2", "unit": "µM"}]}]}
